Source: patent US20250144054A1, “SMALL MOLECULE STAT3 INHIBITOR FOR TREATING TRIPLE NEGATIVE BREAST CANCER” (UNIVERSITY OF MARYLAND, BALTIMORE, priority 2022, published 2025)

What was measured:
4T1 cells = assay: Annexin V and PI flow cytometry, 4T1 cells; assay type: cell-based, murine; conditions: 4T1, 8-12 hours, vs DMSO
Description: Flow cytometry analysis. Flow cytometry was performed to detect cell apoptosis. The APC Annexin V Apoptosis Detection Kit (Biolegend, San Diego, CA, USA) was used for Annexin V staining. Cells were seeded in a 35 mm culture dish at a density of 1×10^5 cells/dish. After overnight incubation, cells were treated with DMSO or LLL12B for 8-12 hours. Cells were harvested and stained with Annexin V-APC and propidium iodide (PI) according to the manufacturer's instructions. After staining, cells were counted using a FACSCanto II flow cytometer (BD Biosciences, San Jose, CA, USA).

MDA-MB-231 cells = assay: Colony formation assay, MDA-MB-231 cells; assay type: cell-based, human; conditions: MDA-MB-231, 24 hours treatment, 7 days drug-free, vs DMSO
Description: Colony formation assay. MDA-MB-231, SUM159, and 4T1 cells were seeded in a 6-well plate at a density of 1000 cells/well and treated with DMSO or LLL12B for 24 hours, and then cultured in a drug-free culture medium for 7 days. Colonies were fixed with methanol for 30 min and stained with 1% crystal violet in 25% methanol for 2 hours at room temperature.

HPAC cells = assay: MTT cell viability assay, HPAC cells; assay type: cell-based, human; conditions: 3 days
Description: The human pancreatic cancer cell lines HPAC and PANC-1 were seeded and allowed to attach for 24 hours. Then cells were treated with different concentrations of LLL12B for 3 days and the cell viability was determined by MTT cell viability assay.

STAT3 [1] = assay: Western blot of P-STAT3 (Y705), STAT3, Cyclin D1, Cleaved Caspase-3 in SUM159 cells; assay type: cell-based, human; conditions: SUM159, overnight, vs DMSO
Description: (§1) (A) MDA-MB-231, SUM159, and 4T1 cell lines were treated with DMSO or LLL12B overnight and the expression levels of P-STAT3 (Y705), STAT3, Cyclin D1, and Cleaved Caspase-3 were analyzed by Western blot. GAPDH served as a protein loading control. (B) MDA-MB-231 cells were treated with DMSO or C188-9 overnight and the expression levels of P-STAT3 (Y705), STAT3, Cyclin D1, and Cleaved Caspase-3 were analyzed by Western blot. (C) MDA-MB-231, SUM159, and 4T1 cells were seeded in a 96-well plate and treated with DMSO or LLL12B for 5 hours and a Caspase-3/7 Fluorescence Assay Kit was used to detect the activation of caspase-3/7. (D) MDA-MB-231, SUM159, and 4T1 cell lines were treated with DMSO or LLL12B for 8-12 hours, and flow cytometry was performed to analyze annexin V and PI staining. The quantification of apoptotic cells was shown in the right panel. ** P<0.01, *** P<0.001 and ****P<0.0001.
(§2) SiRNA and transfection. STAT3 siRNA and Negative Control siRNA (Cell Signaling Technology, Danvers, MA, USA) were used to knock down STAT3 in MDA-MB-231, SUM159, and 4T1 cell lines. Cells were transfected with STAT3 siRNA or Negative Control siRNA using Lipofectamine RNAiMAX (Invitrogen, Carlsbad, CA, USA) according to the manufacturer's instructions. After 72 hours, cell viability was examined by MTT cell viability assay, and the transfection efficiency was examined by western blot.
(§3) Western blot. Cells were collected and total protein was extracted using cell lysis buffer (Cell Signaling Technology, Danvers, MA, USA). Protein concentration was determined using the Pierce BCA Protein Assay Kit (Thermo Fisher Scientific, Waltham, MA, USA) according to the manufacturer's instructions. Equal amounts of protein were separated by 10% SDS-PAGE gels and transferred to PVDF membranes. Membranes were blocked in 5% non-fat milk at room temperature and probed with specific antibodies P-STAT3 (Y705), STAT3, Cyclin D1, Cleaved Caspase-3, P-STAT1 (Y701), STAT1, P-ERK, ERK or GAPDH (1:1000, Cell Signaling Technology, Danvers, MA, USA) at 4° C. overnight. […]

caspase-3/7 = assay: Caspase-3/7 activity assay, 4T1 cells; assay type: cell-based, murine; conditions: 4T1, 5 hours, vs DMSO
Description: Caspase-3/7 activity assay. The Caspase-3/7 Fluorescence Assay Kit (Cayman, Ann Arbor, MI, USA) was used to detect the activation of caspase-3/7 and the assay was performed according to the manufacturer's instructions. Briefly, MDA-MB-231, SUM159, and 4T1 cells were seeded in a 96-well plate in triplicate. After overnight incubation, cells were treated with either LLL12B or DMSO for 5 hours. Cells were lysed and processed to measure caspase-3/7 activity and the fluorescence intensity was read (excitation=485 nm; emission=535 nm).

STAT1 = assay: IFN-γ induced STAT1 phosphorylation, Western blot, MDA-MB-231 cells; assay type: cell-based, human; conditions: pretreated 2 hours, 50 ng/ml IFN-γ 30 minutes
Description: (§4) (A) The chemical structures of LLL12B and LLL12. The carbamate ester bond of LLL12B is hydrolytically cleaved by the tumor-associated plasmin to release LLL12. (B) SUM159 cells were seeded in a 6-well plate and treated with LLL12B for 8 hours. Cells were stained with Phospho-Stat3 (Tyr705) and DAPI (indicated by arrows). Green: P-STAT3 (Y705); Blue: DAPI. T47D (C) and MDA-MB-231 (D) breast cancer cells were pretreated with DMSO or LLL12B in a serum-free medium for 2 hours and stimulated with 50 ng/ml of IL-6, IFN-γ, or EGF for additional 30 minutes. Cells were collected and analyzed by Western blot. GAPDH served as a protein loading control.
as §3

P-STAT3 (Y705) = assay: Immunofluorescence staining of P-STAT3 (Y705) localization in SUM159 cells; assay type: cell-based, human; conditions: 8 hours, vs DMSO
Description: as §4
Immunofluorescence staining. SUM159 cells were seeded in a 6-well plate and treated with LLL12B or DMSO for 8 hours. Cells were fixed with 4% paraformaldehyde (PFA) for 15 minutes at room temperature and then permeabilized with ice-cold 100% methanol for 10 minutes at −20° C. After blocking in 3% Bovine Serum Albumin (BSA)/0.1% Triton X-100, cells were incubated with rabbit anti-Phospho-Stat3 (Tyr705) (1:100, Cell Signaling Technology, Danvers, MA, USA) overnight at 4° C., then with secondary antibody for 1 hour at room temperature. Cells were photographed using a Leica fluorescence microscope (Leica Microsystems Inc, Deerfield, IL, USA).

STAT3 [2] = assay: Western blot of P-STAT3 (Y705), STAT3, Cyclin D1, Cleaved Caspase-3 in MDA-MB-231 cells; assay type: cell-based, human; conditions: MDA-MB-231, overnight
Description: as §1, §2
Western blot. Cells were collected and total protein was extracted using cell lysis buffer (Cell Signaling Technology, Danvers, MA, USA). Protein concentration was determined using the Pierce BCA Protein Assay Kit (Thermo Fisher Scientific, Waltham, MA, USA) according to the manufacturer's instructions. Equal amounts of protein were separated by 10% SDS-PAGE gels and transferred to PVDF membranes. Membranes were blocked in 5% non-fat milk at room temperature and probed with specific antibodies P-STAT3 (Y705), STAT3, Cyclin D1, Cleaved Caspase-3, P-STAT1 (Y701), STAT1, P-ERK, ERK or GAPDH (1:1000, Cell Signaling Technology, Danvers, MA, USA) at 4° C. overnight. The blots were visualized using SuperSignal™ West Femto Maximum Sensitivity Substrate (Thermo Fisher Scientific, Waltham, MA, USA) and an Amersham Imager 680 (GE Healthcare Life Sciences, Marlborough, MA, USA) after incubating with horseradish peroxidase (HRP)-conjugated anti-rabbit secondary antibody (1:5000, Cell Signaling Technology, Danvers, MA, USA).

## CN(C)C(=O)Oc1cccc2c1C(=O)c1cccc(S(N)(=O)=O)c1C2=O [LLL12B]
4T1 cells
  percentage of apoptotic cells: significantly increased
MDA-MB-231 cells
  colony numbers: significant reduction
HPAC cells
  cell viability: significantly inhibits
STAT3 [1]
  Cyclin D1 expression: decreased
  expression of Cleaved Caspase-3: enhanced
  phosphorylation of STAT3: decreased
caspase-3/7
  activation of caspase-3/7: induced the activation
STAT1
  induction of P-STAT1 (Y701) stimulated by IFN-γ: did not inhibit
P-STAT3 (Y705)
  distribution of P-STAT3 (Y705) in the nucleus: blocked
STAT3 [2]
  concentration that inhibited P-STAT3 and Cyclin D1 in Western blot: 1 µM
STAT3 [2]; vs DMSO
  Cyclin D1 expression: decreased
  expression of Cleaved Caspase-3: enhanced
  phosphorylation of STAT3: decreased
